From patent publication US12391721B2, “Crystal forms of beta-nicotinamide mononucleotide” (Metro International Biotech, LLC, priority 2015, dated 2025)

Assays:
Type in all cases: physicochemical
[1] = Three month stability and forced degradation study: HPLC purity of stored solids; settings: for Known Impurity* (%) (nicotinamide, RRT = 1.73 min) / Purity (%): HPLC
Description: Purity analysis was performed on an Agilent HP1100 series system equipped with a diode array detector and using ChemStation software vB.04.03 using the method detailed below in Table 1.
(§1) […] The samples were prepared in duplicate with an offset of 2 weeks. Each replicate was stored in a different container.
(§2) Replicate 1 was charged in an open HPLC vial that was placed in a sealed scintillation vial containing a saturated solution of the relevant inorganic salt (Table 2). These samples were analysed by HPLC, 1H NMR, XRPD and Polarized Light Microscopy (PLM) at 4, 8, and 12 week time points.
(§3) Replicate 2 was stored in sealed box with a recipient containing a saturated solution of the relevant inorganic salt (Table 2). These samples were analysed by HPLC at 2, 6, 10 and 12 week time points. Samples at 25° C./0% RH were stored in a sealed box containing a desiccant agent (P2O5).

[2] = Three month stability and forced degradation study: solid form by XRPD after storage; settings: for XRPD: Replicate 1
Description: X-Ray Powder Diffraction patterns were collected on a Bruker D8 diffractometer using Cu Kα radiation (40 kV, 40 mA), θ-2θ goniometer, and divergence of V4 and receiving slits, a Ge monochromator and a Lynxeye detector. The instrument is performance checked using a certified Corundum standard (NIST 1976). The software used for data collection was Diffrac Plus XRD Commander v2.6.1 and the data were analysed and presented using Diffrac Plus EVA v15.0.0.0.
Samples were run under ambient conditions as flat plate specimens using powder as received. The sample was gently packed into a cavity cut into polished, zero-background (510) silicon wafer. The sample was rotated in its own plane during analysis. The details of the data collection are: • Angular range: 2 to 42° 2θ • Step size: 0.05° 2θ • Collection time: 0.5 s/step HPLC
as §1, §2

[3] = Three month stability and forced degradation study: particle morphology by polarised light microscopy (PLM); settings: Replicate 1
Description: Samples were studied on a Leica LM/DM polarised light microscope with a digital video camera for image capture. A small amount of each sample was placed on a glass slide, 15 mounted in immersion oil and covered with a glass slip, the individual particles being separated as well as possible. The sample was viewed with appropriate magnification and partially polarised light, coupled to a λ false-color filter.
as §1, §2

[4] = Three month stability and forced degradation study: visual observations of stored solids
Description: as §1, §2, §3

[5] = solid stored 25° C., 0% RH, 4 weeks, Replicate 1
[6] = solid stored 25° C., 0% RH, 8 weeks, Replicate 1
[7] = solid stored 25° C., 0% RH, 12 weeks, Replicate 1
[8] = solid stored 25° C., 0% RH, 12 weeks, Replicate 1, listed as Crystalline Form 1
[9] = solid stored 25° C., 60% RH, 2 weeks, Replicate 2
[10] = solid stored 25° C., 60% RH, 4 weeks, Replicate 1
[11] = solid stored 25° C., 60% RH, 6 weeks, Replicate 2
[12] = solid stored 25° C., 60% RH, 8 weeks, Replicate 1
[13] = solid stored 25° C., 60% RH, 10 weeks, Replicate 2
[14] = solid stored 25° C., 60% RH, 12 weeks, Replicate 1
[15] = solid stored 25° C., 60% RH, 12 weeks, Replicate 2
[16] = solid stored 25° C., 97% RH, 2 weeks, Replicate 2
[17] = solid stored 25° C., 97% RH, 4 weeks, Replicate 1
[18] = solid stored 25° C., 97% RH, 6 weeks, Replicate 2
[19] = solid stored 25° C., 97% RH, 8 weeks, Replicate 1
[20] = solid stored 25° C., 97% RH, 10 weeks, Replicate 2
[21] = solid stored 25° C., 97% RH, 12 weeks, Replicate 1
[22] = solid stored 25° C., 97% RH, 12 weeks, Replicate 2
[23] = solid stored 40° C., 75% RH, 2 weeks, Replicate 2
[24] = solid stored 40° C., 75% RH, 4 weeks, Replicate 1
[25] = solid stored 40° C., 75% RH, 6 weeks, Replicate 2
[26] = solid stored 40° C., 75% RH, 8 weeks, Replicate 1
[27] = solid stored 40° C., 75% RH, 10 weeks, Replicate 2
[28] = solid stored 40° C., 75% RH, 12 weeks, Replicate 1
[29] = solid stored 40° C., 75% RH, 12 weeks, Replicate 2
[30] = t = 0, baseline of the stability study, listed as RME-1304-063-01
[31] = solid stored 25° C., 0% RH, 4 weeks
[32] = solid stored 25° C., 0% RH, 8 weeks
[33] = solid stored 25° C., 0% RH, 12 weeks
[34] = solid stored 25° C., 60% RH, 4 weeks
[35] = solid stored 25° C., 60% RH, 8 weeks
[36] = solid stored 25° C., 60% RH, 12 weeks
[37] = solid stored 25° C., 97% RH, 4 weeks
[38] = solid stored 25° C., 97% RH, 8 weeks
[39] = solid stored 25° C., 97% RH, 12 weeks
[40] = solid stored 40° C., 75% RH, 4 weeks
[41] = solid stored 40° C., 75% RH, 8 weeks
[42] = solid stored 40° C., 75% RH, 12 weeks

NC(=O)c1ccc[n+]([C@@H]2O[C@H](COP(=O)([O-])O)[C@@H](O)[C@H]2O)c1 [RME-1304-63-01, β-nicotinamide mononucleotide]
chemical purity after storage ([1]; 4 weeks of storage at all the tested conditions): ~99.3% | Known Impurity* (%) (nicotinamide, RRT = 1.73 min) [1, 5]: 0.25% | Purity (%) [1, 5]: 99.4% | Known Impurity* (%) (nicotinamide, RRT = 1.73 min) [1, 6]: 0.33% | Purity (%) [1, 6]: 99.2% | Known Impurity* (%) (nicotinamide, RRT = 1.73 min) [1, 7]: 0.38% | Purity (%) [1, 7]: 98.9% | Known Impurity* (%) (nicotinamide, RRT = 1.73 min) [1, 8]: 0.38% | Purity (%) [1, 8]: 98.9% | Known Impurity* (%) (nicotinamide, RRT = 1.73 min) [1, 9]: 0.19% | Purity (%) [1, 9]: 99.6% | Known Impurity* (%) (nicotinamide, RRT = 1.73 min) [1, 10]: 0.34% | Purity (%) [1, 10]: 99.3% | Known Impurity* (%) (nicotinamide, RRT = 1.73 min) [1, 11]: 0.21% | Purity (%) [1, 11]: 99.5% | Known Impurity* (%) (nicotinamide, RRT = 1.73 min) [1, 12]: 0.63% | Purity (%) [1, 12]: 98.9% | Known Impurity* (%) (nicotinamide, RRT = 1.73 min) [1, 13]: 0.35% | Purity (%) [1, 13]: 99.1% | Known Impurity* (%) (nicotinamide, RRT = 1.73 min) [1, 14]: 0.98% | Purity (%) [1, 14]: 98.2% | Known Impurity* (%) (nicotinamide, RRT = 1.73 min) [1, 15]: 0.23% | Purity (%) [1, 15]: 98.8% | Known Impurity* (%) (nicotinamide, RRT = 1.73 min) [1, 16]: 0.22% | Purity (%) [1, 16]: 99.5% | Known Impurity* (%) (nicotinamide, RRT = 1.73 min) [1, 17]: 0.49% | Purity (%) [1, 17]: 99.3% | Known Impurity* (%) (nicotinamide, RRT = 1.73 min) [1, 18]: 0.38% | Purity (%) [1, 18]: 99.4% | Known Impurity* (%) (nicotinamide, RRT = 1.73 min) [1, 19]: 1.38% | Purity (%) [1, 19]: 98.3% | Known Impurity* (%) (nicotinamide, RRT = 1.73 min) [1, 20]: 0.77% | Purity (%) [1, 20]: 98.6% | Known Impurity* (%) (nicotinamide, RRT = 1.73 min) [1, 21]: 3.46% | Purity (%) [1, 21]: ~95.8^$ % | Purity (%) ([1]; solid stored 25° C., 97% RH, 12 weeks, Replicate 1, listed as Crystalline Form 1): 95.8% | Known Impurity* (%) (nicotinamide, RRT = 1.73 min) [1, 22]: 0.55% | Purity (%) [1, 22]: 98.4% | Known Impurity* (%) (nicotinamide, RRT = 1.73 min) [1, 23]: 0.22% | Purity (%) [1, 23]: 99.5% | Known Impurity* (%) (nicotinamide, RRT = 1.73 min) [1, 24]: 0.46% | Purity (%) [1, 24]: 99.2% | Known Impurity* (%) (nicotinamide, RRT = 1.73 min) [1, 25]: 0.27% | Purity (%) [1, 25]: 99.4% | Known Impurity* (%) (nicotinamide, RRT = 1.73 min) [1, 26]: 1.38% | Purity (%) [1, 26]: 97.7% | Known Impurity* (%) (nicotinamide, RRT = 1.73 min) [1, 27]: 0.49% | Purity (%) [1, 27]: 98.8% | Known Impurity* (%) (nicotinamide, RRT = 1.73 min) [1, 28]: 3.46% | Purity (%) [1, 28]: 90.7% | Known Impurity* (%) (nicotinamide, RRT = 1.73 min) [1, 29]: 0.77% | Purity (%) [1, 29]: 97.4% | HPLC purity profile, Area % of main peak (RRT 1.00) [1, 30]: 99.52 Area % | HPLC purity profile, Area % of peak at RRT 1.76 / 1.74 (nicotinamide) [1, 30]: 0.12 Area % | nicotinamide impurity ([1]; time 0): 0.12% | Purity ([1]; time 0, listed as Crystalline Form 1): 99.5% | solid form and particle morphology after storage ([2]; all conditions tested): remained unchanged | XRPD [2, 31]: Unchanged | XRPD [2, 32]: Unchanged | XRPD [2, 33]: Unchanged | XRPD [2, 34]: Unchanged | XRPD [2, 35]: Unchanged | XRPD [2, 36]: Unchanged | XRPD [2, 37]: Unchanged | XRPD [2, 38]: Unchanged | XRPD [2, 39]: Unchanged | XRPD [2, 40]: Unchanged | XRPD [2, 41]: Unchanged | XRPD [2, 42]: Unchanged | PLM [3, 31]: acicular | PLM [3, 32]: acicular | PLM [3, 33]: acicular | PLM [3, 34]: acicular | PLM [3, 35]: acicular | PLM [3, 36]: acicular | PLM [3, 37]: acicular | PLM [3, 38]: acicular | PLM [3, 39]: acicular | PLM [3, 40]: acicular | PLM [3, 41]: acicular | PLM [3, 42]: acicular | Observations [4, 5]: white solid | Observations [4, 6]: white solid | Observations [4, 7]: white solid | Observations [4, 9]: white solid | Observations [4, 10]: light brown | Observations [4, 11]: light brown | Observations [4, 12]: light brown | Observations [4, 13]: light brown | Observations [4, 14]: light brown | Observations [4, 15]: light brown | Observations [4, 16]: white solid | Observations [4, 17]: white solid | Observations [4, 18]: white solid, | Observations [4, 19]: white solid | Observations [4, 20]: white solid, wet | Observations [4, 21]: white solid, | Observations [4, 22]: white solid, wet | Observations [4, 23]: white solid | Observations [4, 24]: white solid | Observations [4, 25]: white solid | Observations [4, 26]: white solid | Observations [4, 27]: light brown | Observations [4, 28]: brown solid, | Observations [4, 29]: light brown
